Several values for one entry are separate records, joined by “and”; a condition that tells them apart may be missing. Equal entries are not always repeated.
What was measured:
[1] = target: T1, dopamine transporter (DAT) (Homo sapiens, UniProt Q01959); test: SAFETYscan E/IC50 ELECT, dopamine transporter antagonist assay; format: cell-based; conditions: single experiment
T1 construct: purchased Eurofins DiscoverX (SAFETYscan E/IC50 ELECT service)
Method: (§1) Assessment of the safety profile of VBJ103 across 78 assays using recombinant human targets was performed with the SAFETYscan E/IC50 ELECT service by Eurofins DiscoverX (San Diego, CA, USA). […] The assays were performed utilizing PathHunter enzyme fragment complementation (EFC) technology, FLIPR®-based cellular screening assays, KINOMEscan kinase binding assays and a variety of enzymatic assays. Further potential functional activity at opioid receptors was performed in the gpcrSCAN service by Eurofins DiscoverX. Hit Hunter® cAMP assays were carried out using Enzyme Fragment Complementation (EFC) with β-galactosidase (β-Gal) as the functional reporter.

[2] = target: T2, δ opioid receptor (OPRD1) (Homo sapiens, UniProt P41143); test: Eurofins DiscoverX opioid receptor assays (SAFETYscan; HitHunter cAMP), OPRD1; format: cell-based
T2 construct: purchased Eurofins DiscoverX (SAFETYscan; gpcrSCAN; HitHunter cAMP XS+)
Method: as §1
Assessment of potential positive allosteric modulator (PAM) activity at μ, δ and κ opioid receptors was performed with the DiscoverX HitHunter cAMP XS+ assay by Eurofins DiscoverX (San Diego, CA, USA).

oxaliplatin-treated mice = test: Oxaliplatin-induced cold hyperalgesia, cold-plantar test; format: in vivo, mouse; conditions: for reversal of cold hypersensitivity (withdrawal latency) / increase in latency (AUC) compared to baseline: oxaliplatin group; for influence on oxaliplatin-induced cold hypersensitivity: 30 mg·kg−1 alone
Method: Male and female C57 BL/6J mice from Taconic Labs were randomized by sex and cage to oxaliplatin or vehicle groups. Mice were weighed and injected intraperitoneally (i.p.) with either oxaliplatin (3 mg·kg^−1), or vehicle (5% dextrose) once per day every day for five consecutive days, followed by five days off, and then by a second round of once per day for five more days. Therefore, mice received a total of 10 injections for a total of 30 mg·kg^−1. The average weight of the females was 18 g while of the males was 20 g. Consequently, the females received an average of 540 and the males 600 μg in total. Behavioural testing was started after the second round of oxaliplatin/vehicle administration. The cold-plantar test was used to assess changes in cold sensitivity. A 3 ml syringe barrel filled with powdered dry ice was used as the stimulus. The dry ice is placed on the glass (borosilicate glass; thickness, 1/8 in. (3.17 mm); temperature, 75°F (24°C), measured with a calibrated IR temperature probe) beneath the hindpaw and the latency to withdraw was determined ([Yilmaz et al., 2017]). The baseline withdrawal latency was determined from the mean of three stimulus applications (at an inter-stimulus interval of ~5 min), while that at each time interval after the administration of a test agent was again the mean of three stimulus applications bracketing the time point in question (i.e., 5 min before, at the time point, and 5 min after). Mice in the two groups defined by oxaliplatin treatment were subsequently randomized to the order of treatment (with the TRPM8 antagonist VBJ103, or vehicle control). VBJ103 and vehicle solutions were administered subcutaneously (s.c.) at doses of 3, 10 and 30 mg·kg^−1. Mice were tested every other day over 7 days so that each mouse received all four injections (vehicle and three doses of VBJ103). In a second cohort of male (n = 8) and female (n = 8) mice, all mice were treated with oxaliplatin as described above, and then randomized to the order of treatment with vehicle, VBJ103 (30 mg·kg^−1) alone, the TRPA1 antagonist, HC-030031 (200 mg·kg^−1) alone, or the combination of VBJ103 (30 mg·kg^−1) and HC-030031 (200 mg·kg^−1). A third cohort of male (n = 7) and female (n = 8) mice was also treated with oxaliplatin as described above. […] All test agents in both follow-up cohorts were again administered in a volume of 5 ml·kg^−1. Mice in both follow-up cohorts were again tested every other day over a period of 6 days. Finally, a fourth cohort of male (n = 4) and female (n = 4) mice was used to confirm that 200 mg·kg^−1 HC-030031 was sufficient to block TRPA1. For this experiment, mice were randomized to the order of treatment with vehicle or HC-030031 ([…]).

[3] = Core body temperature and home cage activity by radiotelemetry (s.c., i.p.); format: in vivo, mouse
Method: Male and female C57Bl6J (Jackson Laboratories, Bar Harbor, USA, 8–12 weeks of age, 4 M:3F) were anaesthetised with isoflurane (2%–3% in 100% oxygen), and an HDX11 telemetry unit (Data Sciences) was inserted into the peritoneal cavity through a ventral midline incision. Animals were treated with buprenex (0.05 mg·kg^−1, s.c.every 8 h for 72 h) and enrofloxacin (2 mg·kg^−1, s.c.) and single-housed in a reverse light–dark cycle room (lights off 10 AM–10 PM). Mice were handled every day to acclimatise to injections, and experiments began 1 week later. All injections were performed between 1 and 2 PM. […] Body temperature was averaged into 5-min bins, whereas activity data were summed for the 5-min bin.

[4] = test system: 78 recombinant human targets; test: SAFETYscan E/IC50 ELECT panel of 78 assays; conditions: 10 concentrations, 0.005 to 100 μM; single experiment
Method: Assessment of the safety profile of VBJ103 across 78 assays using recombinant human targets was performed with the SAFETYscan E/IC50 ELECT service by Eurofins DiscoverX (San Diego, CA, USA). Data represent a single experiment and therefore should be considered preliminary. The assays were performed utilizing PathHunter enzyme fragment complementation (EFC) technology, FLIPR®-based cellular screening assays, KINOMEscan kinase binding assays and a variety of enzymatic assays. Further potential functional activity at opioid receptors was performed in the gpcrSCAN service by Eurofins DiscoverX. Hit Hunter® cAMP assays were carried out using Enzyme Fragment Complementation (EFC) with β-galactosidase (β-Gal) as the functional reporter.

human TRPM8 = test system: human TRPM8; set-up: method as in Journigan et al., 2020; conditions: ref Journigan et al., 2020, cited from earlier work

T2 sequence (P41143 whole entry): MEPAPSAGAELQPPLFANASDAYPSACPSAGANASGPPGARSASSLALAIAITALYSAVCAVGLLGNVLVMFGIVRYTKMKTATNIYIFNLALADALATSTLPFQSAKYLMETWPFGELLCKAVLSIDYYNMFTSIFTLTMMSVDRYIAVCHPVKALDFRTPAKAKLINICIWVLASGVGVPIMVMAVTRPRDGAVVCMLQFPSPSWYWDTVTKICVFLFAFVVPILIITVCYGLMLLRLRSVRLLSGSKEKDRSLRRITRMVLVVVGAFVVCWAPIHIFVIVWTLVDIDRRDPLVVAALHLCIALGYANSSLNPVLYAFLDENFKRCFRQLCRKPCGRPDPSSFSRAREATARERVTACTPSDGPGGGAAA
T1 sequence (Q01959 whole entry): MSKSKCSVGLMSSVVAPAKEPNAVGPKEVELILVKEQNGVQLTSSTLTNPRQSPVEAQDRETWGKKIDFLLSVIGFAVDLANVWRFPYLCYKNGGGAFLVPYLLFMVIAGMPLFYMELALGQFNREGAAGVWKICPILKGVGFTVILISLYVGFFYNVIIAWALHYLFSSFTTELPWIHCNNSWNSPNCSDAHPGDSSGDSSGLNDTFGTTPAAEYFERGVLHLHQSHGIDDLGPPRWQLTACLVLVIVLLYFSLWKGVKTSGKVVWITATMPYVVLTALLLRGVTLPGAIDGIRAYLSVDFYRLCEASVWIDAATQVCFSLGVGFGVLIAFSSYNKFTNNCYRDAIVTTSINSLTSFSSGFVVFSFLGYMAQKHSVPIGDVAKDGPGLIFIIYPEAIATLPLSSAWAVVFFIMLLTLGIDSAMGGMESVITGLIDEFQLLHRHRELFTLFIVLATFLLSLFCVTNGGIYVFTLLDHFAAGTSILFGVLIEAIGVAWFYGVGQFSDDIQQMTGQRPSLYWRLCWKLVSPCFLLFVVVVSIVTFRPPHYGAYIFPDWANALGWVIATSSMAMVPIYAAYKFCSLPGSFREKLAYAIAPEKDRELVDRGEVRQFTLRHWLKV

Structure (SMILES): O=C(NC1CCC2(CCCC2)CC1)c1ccc(-c2ccccc2)cc1 [VBJ103, N-(Spiro[4.5]decan-8-yl)-[1,1′-biphenyl]-4-carboxamide]
- IC50 ([1]; 10 concentrations, 0.005 to 100 μM): 0.125 µM and ~0.125 µM
- DAT maximal inhibition ([1]; in relation to the control GBR 12909): ~ 60%
- Emax ([2]; Positive Allosteric Modulator format, read-out: Max Response, cAMP): 0%
- EC50 ([2]; read-out: RC50 (EC50), cAMP): > 100 µM
- activity at δ opioid receptor ([2]; safety panel): no activity
- reversal of cold hypersensitivity (withdrawal latency) (oxaliplatin-treated mice; 3 mg·kg−1 s.c., at 2 h): significant reversals in hypersensitivity
- reversal of cold hypersensitivity (withdrawal latency) (oxaliplatin-treated mice; 10 mg·kg−1 s.c., at 1 and 2 h): significant reversals in hypersensitivity
- increase in latency (AUC) compared to baseline (oxaliplatin-treated mice; 10 mg·kg−1 s.c.): significant
- influence on oxaliplatin-induced cold hypersensitivity (oxaliplatin-treated mice; second cohort, vehicle 0.5% Methocel): significantly attenuated oxaliplatin-induced cold hypersensitivity at all time points tested
- influence on oxaliplatin-induced cold hypersensitivity (oxaliplatin-treated mice; third cohort, vehicle 1:1 DMSO:water): significantly reversed
- reversal of cold hypersensitivity (withdrawal latency) (oxaliplatin-treated mice; 30 mg·kg−1 s.c., at 0.5, 1 and 2 h): significant reversals in hypersensitivity
- increase in latency (AUC) compared to baseline (oxaliplatin-treated mice; 30 mg·kg−1 s.c.): significant
- influence on withdrawal latency to noxious cold stimuli (oxaliplatin-treated mice; VBJ103 30 mg·kg−1 in combination with GBR12909 20 mg·kg−1, third cohort): no detectable influence of GBR12909 on the withdrawal latency
- influence on withdrawal latency to noxious cold stimuli (oxaliplatin-treated mice; VBJ103 30 mg·kg−1 in combination with HC-030031 200 mg·kg−1, second cohort): not detectably different from the influence of VBJ103 alone
- baseline responses to noxious cold compared to vehicle (oxaliplatin-treated mice; mice not treated with oxaliplatin, 3 to 30 mg·kg−1 s.c.): not altered
- drop in CBT versus vehicle ([3]; 3 mg·kg−1 i.p.): not different
- time for CBT to return to baseline values ([3]; 3 mg·kg−1 s.c.): 223 ± 25 min
- time for CBT to return to baseline values ([3]; 10 mg·kg−1 s.c.): 262 ± 48 min
- time for CBT to return to baseline values ([3]; 30 mg·kg−1 s.c.): 380 ± 59 min
- change in home cage activity ([3]; 3, 10 and 30 mg·kg−1 s.c.): without any significant change
- fall in CBT ([3]; 3, 10 and 30 mg·kg−1 s.c., over 180 min): 1–2 °C and 2 °C
- change in home cage activity ([3]; 3, 10 or 30 mg·kg−1 i.p.): no detectable change
- fall in CBT ([3]; 3, 10 or 30 mg·kg−1 i.p.): dose-dependent fall
- time of peak fall in CBT ([3]; 3, 10 or 30 mg·kg−1 i.p.): ≤ 60 min
- drop in CBT versus 3 mg·kg−1 and vehicle ([3]; 10 and 30 mg·kg−1 i.p.): significantly greater
- CBT or home cage activity compared to vehicle ([3]; 100 and 300 mg·kg−1 s.c.): did not alter
- effects across the safety panel [4]: only dose-dependent effect detected
- IC50 (human TRPM8; against menthol-stimulated currents): 0.064 ± 0.002 µM
- selectivity for human TRPM8 versus TRPA1 and TRPV1 (human TRPM8; heterologously expressed channels): ~ 10 fold
